In ChEMBL document CHEMBL2390846, “Small-molecule pyrimidine inhibitors of the cdc2-like (Clk) and dual specificity tyrosine phosphorylation-regulated (Dyrk) kinases: development of chemical probe ML315” (Bioorg Med Chem Lett, 2013):
pIC50: −log10 of the molar value. One block for each molecule: values may come before it.

Columns and labels:
[1] = target: T1, Dual specificity tyrosine-phosphorylation-regulated kinase 1A (Homo sapiens, UniProt Q13627); test: Inhibition of DYRK1A (unknown origin) by bioluminescence assay; settings: for pIC50: read-out: IC50
[2] = target: T2, Dual specificity protein kinase CLK4 (Homo sapiens, UniProt Q9HAZ1); test: Inhibition of CLK4 (unknown origin) by bioluminescence assay; settings: for pIC50: read-out: IC50
[3] = target: T1, Dual specificity tyrosine-phosphorylation-regulated kinase 1A
[4] = target: Dual specificity tyrosine-phosphorylation-regulated kinase 1B (Homo sapiens, UniProt Q9Y463)
[5] = target: T2, Dual specificity protein kinase CLK4
[6] = target: Dual specificity protein kinase CLK1 (Homo sapiens, UniProt P49759)
[7] = target: Dual specificity protein kinase CLK2 (Homo sapiens, UniProt P49760)
Sequence of Dual specificity protein kinase CLK2 (P49760 whole entry): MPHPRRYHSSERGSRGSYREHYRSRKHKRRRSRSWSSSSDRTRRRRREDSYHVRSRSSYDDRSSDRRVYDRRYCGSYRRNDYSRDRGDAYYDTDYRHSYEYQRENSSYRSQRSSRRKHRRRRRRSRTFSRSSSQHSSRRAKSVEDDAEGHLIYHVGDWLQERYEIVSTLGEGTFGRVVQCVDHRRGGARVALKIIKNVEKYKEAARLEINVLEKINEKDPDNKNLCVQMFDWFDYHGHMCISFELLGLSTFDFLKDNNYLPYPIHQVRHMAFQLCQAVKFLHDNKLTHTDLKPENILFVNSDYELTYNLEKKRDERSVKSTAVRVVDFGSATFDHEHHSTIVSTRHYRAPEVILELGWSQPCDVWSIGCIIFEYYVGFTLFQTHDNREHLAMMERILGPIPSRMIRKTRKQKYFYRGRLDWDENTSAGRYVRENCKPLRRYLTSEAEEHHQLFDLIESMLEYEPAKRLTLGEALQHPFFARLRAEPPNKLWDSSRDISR

T2 sequence (Q9HAZ1 whole entry): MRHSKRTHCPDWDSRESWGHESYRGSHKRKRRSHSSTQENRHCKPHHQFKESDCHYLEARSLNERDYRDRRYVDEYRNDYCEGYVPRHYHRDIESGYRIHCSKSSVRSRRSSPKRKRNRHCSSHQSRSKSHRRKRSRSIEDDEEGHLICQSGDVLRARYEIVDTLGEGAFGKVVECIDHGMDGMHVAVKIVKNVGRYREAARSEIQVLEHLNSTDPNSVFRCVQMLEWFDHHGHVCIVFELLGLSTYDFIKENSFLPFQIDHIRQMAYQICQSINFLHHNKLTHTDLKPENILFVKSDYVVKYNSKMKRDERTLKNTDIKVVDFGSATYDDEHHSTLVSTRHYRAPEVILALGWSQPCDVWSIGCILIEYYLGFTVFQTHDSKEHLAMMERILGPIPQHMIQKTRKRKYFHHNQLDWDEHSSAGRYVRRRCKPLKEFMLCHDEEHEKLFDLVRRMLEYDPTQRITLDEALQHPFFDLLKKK
Sequence of Dual specificity tyrosine-phosphorylation-regulated kinase 1B (Q9Y463 whole entry): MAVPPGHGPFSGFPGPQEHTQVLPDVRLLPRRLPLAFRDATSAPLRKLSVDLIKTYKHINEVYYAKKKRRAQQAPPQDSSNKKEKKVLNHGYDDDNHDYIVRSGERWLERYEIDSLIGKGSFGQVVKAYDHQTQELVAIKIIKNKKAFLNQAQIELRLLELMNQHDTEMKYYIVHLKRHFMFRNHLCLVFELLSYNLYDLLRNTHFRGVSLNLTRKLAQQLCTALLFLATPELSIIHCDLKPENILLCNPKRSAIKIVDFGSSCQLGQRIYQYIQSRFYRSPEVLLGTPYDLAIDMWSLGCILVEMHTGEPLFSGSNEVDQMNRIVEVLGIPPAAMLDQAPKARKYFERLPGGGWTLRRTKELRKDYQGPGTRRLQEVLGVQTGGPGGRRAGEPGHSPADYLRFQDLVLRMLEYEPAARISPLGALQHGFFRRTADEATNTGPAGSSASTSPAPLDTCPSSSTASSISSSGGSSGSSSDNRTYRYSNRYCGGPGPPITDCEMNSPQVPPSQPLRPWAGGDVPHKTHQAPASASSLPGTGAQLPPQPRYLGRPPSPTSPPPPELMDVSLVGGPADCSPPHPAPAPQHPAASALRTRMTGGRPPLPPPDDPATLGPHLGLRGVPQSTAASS
Sequence of Dual specificity protein kinase CLK1 (P49759 whole entry): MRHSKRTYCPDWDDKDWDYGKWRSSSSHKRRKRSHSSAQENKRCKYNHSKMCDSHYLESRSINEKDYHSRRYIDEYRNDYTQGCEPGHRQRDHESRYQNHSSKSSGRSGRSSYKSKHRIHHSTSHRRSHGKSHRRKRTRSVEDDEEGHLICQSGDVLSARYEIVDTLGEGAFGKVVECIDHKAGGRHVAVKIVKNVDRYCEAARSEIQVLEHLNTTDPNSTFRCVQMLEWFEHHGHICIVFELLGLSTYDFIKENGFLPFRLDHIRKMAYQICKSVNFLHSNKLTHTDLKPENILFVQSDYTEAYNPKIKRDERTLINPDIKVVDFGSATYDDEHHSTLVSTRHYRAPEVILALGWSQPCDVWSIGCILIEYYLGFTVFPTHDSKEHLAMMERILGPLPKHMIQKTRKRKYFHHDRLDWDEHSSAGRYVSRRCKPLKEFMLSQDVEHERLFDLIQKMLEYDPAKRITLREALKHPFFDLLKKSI

SMILES: COc1ccc(-c2ccnc(NCc3ccc(Cl)c(Cl)c3)n2)cc1
pIC50 [1]: 5.94 | pIC50 [2]: 6.68 | pIC50 [3]: 6.69 | pIC50 [4]: 6.39 | pIC50 [5]: 7.04 | pIC50 [6]: 7.12 | pIC50 [7]: 6.39

SMILES: COc1cccc(-c2ccnc(NCc3ccc(Cl)cc3)n2)c1
pIC50 [1]: 5.13 | pIC50 [2]: 5.24 | pIC50 [3]: 5.20 | pIC50 [4]: 5.17 | pIC50 [5]: 5.17 | pIC50 [6]: < 5.00 | pIC50 [7]: < 5.00

SMILES: c1cncc(CNc2nccc(-c3ccc4cn[nH]c4c3)n2)c1
pIC50 [1]: 6.68 | pIC50 [2]: 7.40

SMILES: COc1ccc(-c2nccc(NCc3ccc(C)cc3)n2)cc1
IC50 [1]: Not Active | IC50 [2]: Not Active

SMILES: Brc1cc(Br)cc(CNc2nccc(-c3ccc4c(c3)OCO4)n2)c1
pIC50 [1]: 7.15 | pIC50 [2]: 7.40 | pIC50 [3]: 7.96 | pIC50 [4]: 7.74 | pIC50 [5]: 8.05 | pIC50 [6]: 7.89 | pIC50 [7]: 7.39

SMILES: CN(C)c1ccc(-c2nccc(NCc3ccc(Cl)c(Cl)c3)n2)cc1
IC50 [1]: Not Active | IC50 [2]: Not Active

SMILES: Brc1cc(Br)cc(CNc2ccnc(-c3ccc4c(c3)OCO4)n2)c1
IC50 [1]: Not Active | pIC50 [2]: 5.04

SMILES: Clc1ccc(CNc2cc(-c3ccc4c(c3)OCO4)ncn2)cc1Cl
pIC50 [2]: 5.33

SMILES: COc1ccc(-c2ccnc(NCc3ccc(Cl)c(Cl)c3)n2)cc1OC
pIC50 [1]: 4.58 | pIC50 [2]: 4.58 | pIC50 [5]: < 5.00 | pIC50 [6]: < 5.00

SMILES: Clc1ccc(CNc2ccnc(-c3ccc4c(c3)OCO4)n2)cc1Cl
IC50 [1]: Not Active | pIC50 [2]: 4.59

SMILES: COc1ccc(-c2nccc(NCc3ccc(Cl)cc3)n2)cc1
IC50 [1]: Not Active | pIC50 [2]: 4.89

SMILES: Cc1ccc(CNc2ccnc(-c3c(C)noc3C)n2)cc1
IC50 [1]: Not Active | IC50 [2]: Not Active

SMILES: c1cncc(CNc2ncncc2-c2ccc3c(c2)OCO3)c1
pIC50 [1]: 4.58 | pIC50 [3]: < 5.00 | pIC50 [4]: < 5.00 | pIC50 [6]: 5.32 | pIC50 [7]: < 5.00

SMILES: FC(F)(F)c1cc(Br)cc(Nc2nccc(-c3ccc4c(c3)OCO4)n2)c1
pIC50 [1]: 6.28 | pIC50 [2]: 6.89 | pIC50 [3]: 6.97 | pIC50 [4]: 6.86 | pIC50 [5]: 7.07 | pIC50 [6]: 6.99 | pIC50 [7]: 6.46

SMILES: COc1ccccc1CNc1ncncc1-c1ccc2c(c1)OCO2
pIC50 [2]: 5.66

SMILES: Fc1ccc(CNc2ccnc(-c3ccc4c(c3)OCO4)n2)cc1Br
pIC50 [2]: 4.89

SMILES: Clc1ccc(Nc2nccc(-c3ccc4c(c3)OCO4)n2)cc1
pIC50 [1]: 6.28 | pIC50 [2]: 6.43 | pIC50 [3]: 6.56 | pIC50 [4]: 6.05 | pIC50 [5]: 5.26 | pIC50 [6]: 5.90 | pIC50 [7]: < 5.00

SMILES: CN(C)c1ccc(-c2nccc(NCc3ccccc3)n2)cc1
IC50 [1]: Not Active | IC50 [2]: Not Active

SMILES: Clc1ccc(CNc2nccc(-c3ccc4cn[nH]c4c3)n2)cc1Cl
pIC50 [1]: 5.79 | pIC50 [2]: 5.24 | pIC50 [3]: 6.77 | pIC50 [4]: 6.22 | pIC50 [5]: 6.91 | pIC50 [6]: 6.74 | pIC50 [7]: 6.37

SMILES: Clc1ccc(CNc2ncncc2-c2ccc3c(c2)OCO3)cc1
pIC50 [1]: 4.58 | pIC50 [2]: 5.24 | pIC50 [3]: 5.34 | pIC50 [4]: 5.05 | pIC50 [5]: 5.03 | pIC50 [6]: 5.63 | pIC50 [7]: 5.06

SMILES: COc1cccc(-c2ccnc(NCc3ccc(Cl)c(Cl)c3)n2)c1
pIC50 [1]: 5.24 | pIC50 [2]: 5.43 | pIC50 [3]: 5.33 | pIC50 [4]: < 5.00 | pIC50 [5]: 5.41 | pIC50 [6]: 5.26 | pIC50 [7]: < 5.00

SMILES: COc1ccc(CNc2ccnc(-c3ccc(OC)cc3)n2)cc1
IC50 [1]: Not Active | pIC50 [2]: 4.43

SMILES: Clc1cncc(CNc2ccnc(-c3ccc4c(c3)OCO4)n2)c1
pIC50 [2]: 4.74

SMILES: Clc1ccc(CNc2ncncc2-c2ccc3c(c2)OCO3)cc1Cl
pIC50 [1]: 5.39 | pIC50 [2]: 6.24 | pIC50 [3]: 5.46 | pIC50 [4]: < 5.00 | pIC50 [5]: 6.28 | pIC50 [6]: 6.20 | pIC50 [7]: 5.81

SMILES: Cc1ccc(CNc2ccnc(-c3ccc4c(c3)OCO4)n2)cn1
pIC50 [2]: 4.48

SMILES: Clc1cc(Cl)cc(CNc2cc(-c3ccc4c(c3)OCO4)ncn2)c1
pIC50 [2]: 5.79

SMILES: c1cncc(CNc2cc(-c3ccc4c(c3)OCO4)ncn2)c1
pIC50 [1]: 4.78 | pIC50 [2]: 5.18

SMILES: Fc1cc(CNc2ccnc(-c3ccc4c(c3)OCO4)n2)ccc1Cl
pIC50 [2]: 4.89

SMILES: Clc1ccc(CNc2ccnc(-c3ccc4[nH]ncc4c3)n2)cc1Cl
pIC50 [1]: 5.33 | pIC50 [3]: 5.63 | pIC50 [4]: 6.29 | pIC50 [6]: 5.75

SMILES: Fc1ccc(CNc2ccnc(-c3ccc4c(c3)OCO4)n2)cc1F
pIC50 [2]: 4.98

SMILES: Cc1ccc(CNc2ccnc(-c3ccc(N(C)C)cc3)n2)cc1
IC50 [1]: Not Active | IC50 [2]: Not Active

SMILES: c1ccc2ncc(CNc3ccnc(-c4ccc5c(c4)OCO5)n3)cc2c1
pIC50 [2]: 4.39

SMILES: Clc1ccc(CNc2ccnc(-c3ccc4c(c3)OCO4)n2)cc1
IC50 [1]: Not Active | pIC50 [2]: 4.39

SMILES: Clc1ccc(CNc2cc(-c3ccc4c(c3)OCO4)ncn2)cc1
pIC50 [2]: 5.63

SMILES: COc1ccc(CNc2ccnc(-c3ccc4c(c3)OCO4)n2)cc1
IC50 [2]: Not Active

SMILES: CN(C)c1ccc(-c2nccc(NCc3ccc(Cl)cc3)n2)cc1
IC50 [1]: Not Active | IC50 [2]: Not Active

SMILES: Brc1cncc(CNc2ccnc(-c3ccc4c(c3)OCO4)n2)c1
pIC50 [2]: 5.09

SMILES: Fc1cc(F)cc(CNc2ccnc(-c3ccc4c(c3)OCO4)n2)c1
pIC50 [2]: 5.28

SMILES: COc1ccc(-c2ccnc(NCc3ccc(Cl)cc3)n2)cc1
pIC50 [1]: 5.68 | pIC50 [2]: 6.54 | pIC50 [3]: 6.25 | pIC50 [4]: 6.06 | pIC50 [5]: 6.50 | pIC50 [6]: 6.56 | pIC50 [7]: 5.96

SMILES: Fc1cc(CNc2ccnc(-c3ccc4c(c3)OCO4)n2)cc(F)c1F
pIC50 [2]: 5.09

SMILES: COc1ccc(CNc2ccnc(-c3c(C)noc3C)n2)cc1
IC50 [1]: Not Active | IC50 [2]: Not Active

SMILES: Cc1noc(C)c1-c1nccc(NCc2ccc(Cl)c(Cl)c2)n1
IC50 [1]: Not Active | IC50 [2]: Not Active

SMILES: c1cc(-c2ccc3c(c2)OCO3)nc(Nc2ccc3c(c2)OCO3)n1
pIC50 [1]: 6.89 | pIC50 [2]: 6.92 | pIC50 [3]: 7.60 | pIC50 [4]: 7.38 | pIC50 [5]: 7.12 | pIC50 [6]: 6.74 | pIC50 [7]: 6.59

SMILES: Clc1ccc(CNc2ccnc(-c3ccc4c(c3)OCO4)n2)cn1
pIC50 [1]: 4.53 | pIC50 [2]: 4.53

SMILES: COc1ccc(CNc2ccnc(-c3ccc(N(C)C)cc3)n2)cc1
IC50 [1]: Not Active | IC50 [2]: Not Active

SMILES: Brc1ccc(CNc2ccnc(-c3ccc4c(c3)OCO4)n2)cc1Br
IC50 [1]: Not Active | pIC50 [2]: 5.04

SMILES: Fc1cncc(CNc2ccnc(-c3ccc4c(c3)OCO4)n2)c1
pIC50 [2]: 5.09

SMILES: COc1ccc(-c2nccc(NCc3ccc(Cl)c(Cl)c3)n2)cc1
IC50 [1]: Not Active | pIC50 [2]: 4.84

SMILES: Cc1noc(C)c1-c1nccc(NCc2ccc(Cl)cc2)n1
IC50 [1]: Not Active | IC50 [2]: Not Active

SMILES: Fc1ccc(CNc2ccnc(-c3ccc4c(c3)OCO4)n2)cc1Cl
pIC50 [2]: 5.28

SMILES: Clc1ccc(CNc2nccc(-c3ccc4c(c3)OCO4)n2)cc1
pIC50 [2]: 7.30

SMILES: Clc1cc(Cl)cc(CNc2ccnc(-c3ccc4c(c3)OCO4)n2)c1
IC50 [1]: Not Active | pIC50 [2]: 5.39

SMILES: Cc1ccc(CNc2ccnc(-c3ccc4c(c3)OCO4)n2)cc1
IC50 [1]: Not Active | pIC50 [2]: 4.63

Now from value to molecule:

IC50 [1]: Not Active | IC50 [2]: Not Active
SMILES: CN(C)c1ccc(-c2ncccn2)cc1

pIC50 [2]: 7.20
SMILES: c1cncc(CNc2ccnc(-c3ccc4c(c3)OCO4)n2)c1

pIC50 [2]: 4.89
SMILES: COc1cccc(-c2nccc(NCc3ccc(Cl)cc3)n2)c1

IC50 [1]: Not Active | pIC50 [2]: 4.84
SMILES: COc1cccc(-c2nccc(NCc3ccc(Cl)c(Cl)c3)n2)c1

pIC50 [2]: 6.10
SMILES: c1cncc(-c2cc(-n3ccnc3)ncn2)c1

pIC50 [2]: 4.89
SMILES: Clc1ccc(CNc2ccnc(-c3cccnc3)n2)cc1Cl

pIC50 [2]: 4.80
SMILES: COc1cccc(-c2nccc(NCc3ccccc3)n2)c1

IC50 [1]: Not Active | pIC50 [2]: 4.53
SMILES: COc1ccc(-c2nccc(NCc3ccccc3)n2)cc1

pIC50 [2]: 5.04
SMILES: COc1ccc(CNc2ccnc(-c3cccc(C#N)c3)n2)cc1

IC50 [1]: Not Active | pIC50 [2]: 4.53
SMILES: COc1ccc(-c2ncccn2)cc1

IC50 [1]: Not Active | pIC50 [2]: 4.59
SMILES: N#Cc1cccc(-c2ncccn2)c1

IC50 [1]: Not Active | IC50 [2]: Not Active
SMILES: Cc1noc(C)c1-c1ncccn1

IC50 [1]: Not Active | IC50 [2]: Not Active
SMILES: c1cnc(-c2ccc3c(c2)OCO3)nc1

pIC50 [1]: 5.68 | pIC50 [2]: 6.54 | pIC50 [3]: 5.84 | pIC50 [4]: 6.08 | pIC50 [5]: 5.89 | pIC50 [6]: 5.80 | pIC50 [7]: 5.72
SMILES: c1cncc(CNc2ccnc(-c3ccc4cn[nH]c4c3)n2)c1

IC50 [1]: Not Active | pIC50 [2]: 4.59
SMILES: Cc1ccc(CNc2ccnc(-c3cccnc3)n2)cc1

pIC50 [2]: 4.79
SMILES: Clc1ccc(CNc2ccnc(-c3cccnc3)n2)cc1

pIC50 [2]: 4.39
SMILES: COc1cccc(-c2nccc(NCc3ccc(C)cc3)n2)c1

pIC50 [2]: 5.04
SMILES: c1ccc(CNc2ccnc(-c3ccc4c(c3)OCO4)n2)nc1

pIC50 [2]: 4.50
SMILES: c1ccc(CNc2ccnc(-c3cccnc3)n2)cc1

pIC50 [1]: 4.59 | pIC50 [2]: 4.63
SMILES: c1ccc(CNc2ccnc(-c3ccc4c(c3)OCO4)n2)cc1

pIC50 [2]: 4.63
SMILES: c1cc(CNc2ccnc(-c3ccc4c(c3)OCO4)n2)ccn1

pIC50 [2]: 4.63
SMILES: COc1ccc(CNc2ccnc(-c3cccc(OC)c3)n2)cc1

pIC50 [2]: 4.63
SMILES: Cc1ccc(CNc2ccnc(-c3cccc(C#N)c3)n2)cc1

pIC50 [2]: 4.79
SMILES: COc1cccc(-c2ncccn2)c1

pIC50 [2]: 4.85
SMILES: N#Cc1cccc(-c2nccc(NCc3ccccc3)n2)c1

pIC50 [1]: 6.19 | pIC50 [2]: 6.82 | pIC50 [3]: 6.46 | pIC50 [4]: 6.75 | pIC50 [5]: 6.24 | pIC50 [6]: 6.02 | pIC50 [7]: 6.18
SMILES: c1cncc(CNc2ccnc(-c3ccc4[nH]ncc4c3)n2)c1
